The kinase profiling compilation of Christmann-Franck et al. (2016)

How the values were obtained:
Assay in all cases: KINOMEscan competition binding
Conditions in all cases: compound 10.0 µM
YSK4 (human) = YSK4 (human) (UniProt Q56UN5)
CDK14 (human) = CDK14 (human) (UniProt O94921)
PLK1 (human) = PLK1 (human) (UniProt P53350)
DCLK2 (human) = DCLK2 (human) (UniProt Q8N568)
FLT3 (human) = FLT3 (human) (UniProt P36888)
BMPR1B (human) = BMPR1B (human) (UniProt O00238)
RAF1 (human) = RAF1 (human) (UniProt P04049)
HUNK (human) = HUNK (human) (UniProt P57058)
MAP3K9 (human) = MAP3K9 (human) (UniProt P80192)
MAPK15 (human) = MAPK15 (human) (UniProt Q8TD08)
PRKAA2 (human) = PRKAA2 (human) (UniProt P54646)
FGFR3 (human) = FGFR3 (human) (UniProt P22607)
STK11 (human) = STK11 (human) (UniProt Q15831)
[1] = test system: EGFR (human), P00533 [A750P; 747-749 del]
EIF2AK2 (human) = EIF2AK2 (human) (UniProt P19525)
[2] = test system: BMX (human), P51813 [V600E]
TYRO3 (human) = TYRO3 (human) (UniProt Q06418)
Sequence of TYRO3 (human) (Q06418 whole entry, looked up): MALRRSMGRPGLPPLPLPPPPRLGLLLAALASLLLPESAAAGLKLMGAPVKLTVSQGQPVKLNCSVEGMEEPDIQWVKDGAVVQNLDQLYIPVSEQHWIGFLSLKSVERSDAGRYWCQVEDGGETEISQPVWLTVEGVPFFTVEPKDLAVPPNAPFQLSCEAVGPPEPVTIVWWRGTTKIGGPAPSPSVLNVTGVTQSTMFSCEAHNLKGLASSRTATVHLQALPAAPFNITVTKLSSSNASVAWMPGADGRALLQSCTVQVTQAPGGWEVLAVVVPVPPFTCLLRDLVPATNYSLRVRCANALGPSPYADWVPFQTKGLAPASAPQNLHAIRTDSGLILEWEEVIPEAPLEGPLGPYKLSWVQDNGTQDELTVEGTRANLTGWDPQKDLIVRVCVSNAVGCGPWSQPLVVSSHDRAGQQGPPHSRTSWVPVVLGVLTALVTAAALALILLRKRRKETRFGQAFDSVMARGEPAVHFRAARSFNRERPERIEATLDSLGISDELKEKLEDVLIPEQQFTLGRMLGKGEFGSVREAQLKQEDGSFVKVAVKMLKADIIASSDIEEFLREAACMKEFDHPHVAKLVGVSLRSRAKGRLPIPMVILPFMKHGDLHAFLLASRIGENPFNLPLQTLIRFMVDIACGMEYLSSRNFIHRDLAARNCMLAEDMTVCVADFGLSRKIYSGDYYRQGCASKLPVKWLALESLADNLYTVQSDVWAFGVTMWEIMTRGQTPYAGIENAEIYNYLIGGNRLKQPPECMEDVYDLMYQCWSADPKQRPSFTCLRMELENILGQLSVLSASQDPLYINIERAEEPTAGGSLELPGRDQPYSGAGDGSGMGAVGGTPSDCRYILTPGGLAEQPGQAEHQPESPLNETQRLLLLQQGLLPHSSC

CSNK1G3 (human) = CSNK1G3 (human) (UniProt Q9Y6M4)
PRKG1 (human) = PRKG1 (human) (UniProt Q13976)
ERBB3 (human) = ERBB3 (human) (UniProt P21860)
LCK (human) = LCK (human) (UniProt P06239)
RPS6KA2 KD1 (human) = RPS6KA2 KD1 (human) (UniProt Q15349)
MAPK11 (human) = MAPK11 (human) (UniProt Q15759)
CHEK2 (human) = CHEK2 (human) (UniProt O96017)
CLK2 (human) = CLK2 (human) (UniProt P49760)
DAPK3 (human) = DAPK3 (human) (UniProt O43293)
Sequence of DAPK3 (human) (O43293 whole entry, looked up): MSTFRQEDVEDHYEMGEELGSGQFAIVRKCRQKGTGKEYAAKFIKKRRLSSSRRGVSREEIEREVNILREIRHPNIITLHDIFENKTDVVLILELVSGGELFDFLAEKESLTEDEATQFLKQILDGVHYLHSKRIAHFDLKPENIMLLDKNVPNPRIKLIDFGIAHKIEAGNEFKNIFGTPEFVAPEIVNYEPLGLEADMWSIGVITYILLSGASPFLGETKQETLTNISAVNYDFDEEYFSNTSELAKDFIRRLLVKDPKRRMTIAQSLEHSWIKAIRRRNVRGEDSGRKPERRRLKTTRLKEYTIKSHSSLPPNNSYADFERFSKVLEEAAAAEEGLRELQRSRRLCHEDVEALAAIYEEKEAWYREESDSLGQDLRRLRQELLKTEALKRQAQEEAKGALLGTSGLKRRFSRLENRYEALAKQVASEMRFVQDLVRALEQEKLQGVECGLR

MTOR (human) = MTOR (human) (UniProt P42345)
[3] = test system: LRRK2 (human), Q5S007 [G2019S]
Sequence of LRRK2 (human), Q5S007 [G2019S] (Q5S007 whole entry G2019S, looked up): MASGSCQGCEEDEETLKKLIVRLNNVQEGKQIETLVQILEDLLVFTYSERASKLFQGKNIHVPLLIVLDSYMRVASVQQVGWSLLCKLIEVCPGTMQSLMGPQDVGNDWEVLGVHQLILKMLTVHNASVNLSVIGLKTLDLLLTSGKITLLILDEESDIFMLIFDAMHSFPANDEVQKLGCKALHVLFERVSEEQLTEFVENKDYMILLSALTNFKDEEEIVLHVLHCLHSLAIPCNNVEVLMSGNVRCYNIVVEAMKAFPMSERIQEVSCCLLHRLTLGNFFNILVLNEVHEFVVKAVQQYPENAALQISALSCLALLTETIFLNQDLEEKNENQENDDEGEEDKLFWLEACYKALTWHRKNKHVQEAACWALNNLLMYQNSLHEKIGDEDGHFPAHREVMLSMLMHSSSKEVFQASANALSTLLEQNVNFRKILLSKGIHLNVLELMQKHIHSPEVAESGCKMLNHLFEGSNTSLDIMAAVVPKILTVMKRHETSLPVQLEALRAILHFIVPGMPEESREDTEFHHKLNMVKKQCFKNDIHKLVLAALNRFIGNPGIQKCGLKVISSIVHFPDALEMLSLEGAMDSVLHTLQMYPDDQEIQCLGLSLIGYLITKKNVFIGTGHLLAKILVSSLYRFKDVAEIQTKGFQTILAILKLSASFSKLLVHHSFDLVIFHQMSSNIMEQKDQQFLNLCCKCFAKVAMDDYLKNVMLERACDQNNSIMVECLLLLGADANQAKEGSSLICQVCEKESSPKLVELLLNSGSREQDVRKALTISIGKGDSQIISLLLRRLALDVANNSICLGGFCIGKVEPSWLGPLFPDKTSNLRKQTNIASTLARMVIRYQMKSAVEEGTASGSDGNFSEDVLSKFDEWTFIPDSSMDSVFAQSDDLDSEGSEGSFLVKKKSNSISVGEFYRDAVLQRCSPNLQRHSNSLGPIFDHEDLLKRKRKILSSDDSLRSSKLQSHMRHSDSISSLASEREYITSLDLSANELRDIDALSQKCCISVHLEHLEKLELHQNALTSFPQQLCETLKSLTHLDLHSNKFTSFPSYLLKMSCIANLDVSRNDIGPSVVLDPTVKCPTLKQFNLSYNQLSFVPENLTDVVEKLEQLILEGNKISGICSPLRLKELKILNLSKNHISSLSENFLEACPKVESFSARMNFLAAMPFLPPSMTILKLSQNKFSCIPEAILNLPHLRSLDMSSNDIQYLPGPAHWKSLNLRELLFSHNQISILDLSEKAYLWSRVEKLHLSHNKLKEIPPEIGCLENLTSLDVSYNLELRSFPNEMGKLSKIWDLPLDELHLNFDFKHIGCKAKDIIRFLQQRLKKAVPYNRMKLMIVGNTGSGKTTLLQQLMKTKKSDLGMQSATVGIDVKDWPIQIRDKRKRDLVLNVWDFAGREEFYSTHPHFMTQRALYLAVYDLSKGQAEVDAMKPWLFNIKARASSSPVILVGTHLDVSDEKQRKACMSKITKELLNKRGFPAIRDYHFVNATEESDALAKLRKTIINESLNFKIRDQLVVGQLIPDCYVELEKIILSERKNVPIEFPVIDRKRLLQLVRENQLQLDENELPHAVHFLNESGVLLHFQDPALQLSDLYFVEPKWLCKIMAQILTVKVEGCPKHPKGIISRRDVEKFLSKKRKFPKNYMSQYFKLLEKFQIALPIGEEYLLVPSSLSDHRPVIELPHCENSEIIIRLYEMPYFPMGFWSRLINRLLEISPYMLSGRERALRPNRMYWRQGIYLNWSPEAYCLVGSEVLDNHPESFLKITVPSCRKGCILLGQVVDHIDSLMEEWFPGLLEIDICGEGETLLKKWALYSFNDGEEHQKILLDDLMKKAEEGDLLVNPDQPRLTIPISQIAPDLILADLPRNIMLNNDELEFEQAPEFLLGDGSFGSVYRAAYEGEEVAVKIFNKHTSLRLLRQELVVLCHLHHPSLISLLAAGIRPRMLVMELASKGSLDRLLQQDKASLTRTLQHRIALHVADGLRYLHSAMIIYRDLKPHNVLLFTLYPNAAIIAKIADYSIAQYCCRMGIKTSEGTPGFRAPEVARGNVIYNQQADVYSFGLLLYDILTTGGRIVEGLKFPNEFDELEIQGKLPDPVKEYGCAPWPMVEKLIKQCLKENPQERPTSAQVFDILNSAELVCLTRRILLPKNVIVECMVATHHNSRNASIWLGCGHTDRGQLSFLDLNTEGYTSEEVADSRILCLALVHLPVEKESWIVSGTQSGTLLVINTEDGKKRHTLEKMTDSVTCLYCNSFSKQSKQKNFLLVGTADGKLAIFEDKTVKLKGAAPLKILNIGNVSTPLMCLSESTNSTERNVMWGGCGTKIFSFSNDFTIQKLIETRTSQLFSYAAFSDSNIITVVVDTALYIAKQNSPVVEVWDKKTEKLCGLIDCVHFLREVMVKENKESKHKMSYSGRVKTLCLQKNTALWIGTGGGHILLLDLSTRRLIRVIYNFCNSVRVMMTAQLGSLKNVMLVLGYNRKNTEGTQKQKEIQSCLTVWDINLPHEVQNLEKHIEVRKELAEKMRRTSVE

EPHB2 (human) = EPHB2 (human) (UniProt P29323)
PRKCI (human) = PRKCI (human) (UniProt P41743)
RIOK1 (human) = RIOK1 (human) (UniProt Q9BRS2)
MAPK10 (human) = MAPK10 (human) (UniProt P53779)
PIP5K1A (human) = PIP5K1A (human) (UniProt Q99755)
CAMK1D (human) = CAMK1D (human) (UniProt Q8IU85)
MAP2K5 (human) = MAP2K5 (human) (UniProt Q13163)
Sequence of MAP2K5 (human) (Q13163 whole entry, looked up): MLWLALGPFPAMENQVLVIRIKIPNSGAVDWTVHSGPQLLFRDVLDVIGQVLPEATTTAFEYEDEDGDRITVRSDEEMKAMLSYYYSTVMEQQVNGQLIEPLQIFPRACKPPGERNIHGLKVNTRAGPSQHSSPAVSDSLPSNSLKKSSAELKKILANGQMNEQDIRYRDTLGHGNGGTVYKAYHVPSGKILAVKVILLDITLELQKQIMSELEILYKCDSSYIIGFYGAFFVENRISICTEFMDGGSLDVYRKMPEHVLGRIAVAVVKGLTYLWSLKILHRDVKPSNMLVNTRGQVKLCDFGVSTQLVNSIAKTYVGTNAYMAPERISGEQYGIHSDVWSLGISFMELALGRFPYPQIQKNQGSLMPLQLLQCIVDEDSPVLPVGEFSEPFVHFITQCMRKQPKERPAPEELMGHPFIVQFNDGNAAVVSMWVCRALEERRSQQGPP

PHKG1 (human) = PHKG1 (human) (UniProt Q16816)
[4] = target: TYK2 JH1 catalytic (human) (UniProt P29597)
CDK4 CCND3 (human) = CDK4 CCND3 (human) (UniProt P11802+P30281)
CAMK2A (human) = CAMK2A (human) (UniProt Q9UQM7)
IGF1R (human) = IGF1R (human) (UniProt P08069)

Sequence of DCLK2 (human) (Q8N568 whole entry, looked up): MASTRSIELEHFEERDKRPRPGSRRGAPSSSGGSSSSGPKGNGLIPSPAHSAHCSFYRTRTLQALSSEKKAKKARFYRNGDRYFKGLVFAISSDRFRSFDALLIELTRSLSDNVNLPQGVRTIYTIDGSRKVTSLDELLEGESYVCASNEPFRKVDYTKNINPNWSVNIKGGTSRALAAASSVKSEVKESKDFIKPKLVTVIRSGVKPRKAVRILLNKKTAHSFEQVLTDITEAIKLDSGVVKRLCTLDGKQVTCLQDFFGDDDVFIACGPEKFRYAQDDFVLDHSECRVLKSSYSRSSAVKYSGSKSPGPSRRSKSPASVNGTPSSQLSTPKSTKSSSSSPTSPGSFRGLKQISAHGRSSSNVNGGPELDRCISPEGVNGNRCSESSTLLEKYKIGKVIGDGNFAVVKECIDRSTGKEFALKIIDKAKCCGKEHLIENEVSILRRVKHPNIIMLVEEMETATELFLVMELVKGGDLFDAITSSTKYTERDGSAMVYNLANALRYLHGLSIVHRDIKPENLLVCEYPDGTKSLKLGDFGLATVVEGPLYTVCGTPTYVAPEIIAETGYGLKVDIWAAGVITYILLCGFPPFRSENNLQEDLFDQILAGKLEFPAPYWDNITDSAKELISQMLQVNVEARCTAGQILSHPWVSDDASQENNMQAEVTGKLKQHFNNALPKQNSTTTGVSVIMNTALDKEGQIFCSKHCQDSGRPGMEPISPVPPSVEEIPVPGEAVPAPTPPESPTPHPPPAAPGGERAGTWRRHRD

## CCN1CCN(Cc2ccc(NC(=O)c3ccc(C)c(/C=C/c4cnc5[nH]ccc5c4OC)c3)cc2C(F)(F)F)CC1
YSK4 (human)
  kinase still bound, per cent of control: 0.2%
CDK14 (human)
  kinase still bound, per cent of control: 72%
PLK1 (human)
  kinase still bound, per cent of control: 100%
DCLK2 (human)
  kinase still bound, per cent of control: 100%
FLT3 (human)
  kinase still bound, per cent of control: 0.95%
BMPR1B (human)
  kinase still bound, per cent of control: 14%
RAF1 (human)
  kinase still bound, per cent of control: 0.9%
HUNK (human)
  kinase still bound, per cent of control: 18%
MAP3K9 (human)
  kinase still bound, per cent of control: 1.4%
MAPK15 (human)
  kinase still bound, per cent of control: 67%
PRKAA2 (human)
  kinase still bound, per cent of control: 39%
FGFR3 (human)
  kinase still bound, per cent of control: 1.8%
STK11 (human)
  kinase still bound, per cent of control: 7.9%
[1]
  kinase still bound, per cent of control: 1.1%
EIF2AK2 (human)
  kinase still bound, per cent of control: 80%
[2]
  kinase still bound, per cent of control: 0.05%
TYRO3 (human)
  kinase still bound, per cent of control: 100%
CSNK1G3 (human)
  kinase still bound, per cent of control: 48%
PRKG1 (human)
  kinase still bound, per cent of control: 100%
ERBB3 (human)
  kinase still bound, per cent of control: 100%
LCK (human)
  kinase still bound, per cent of control: 0.15%
RPS6KA2 KD1 (human)
  kinase still bound, per cent of control: 2.7%
MAPK11 (human)
  kinase still bound, per cent of control: 0%
CHEK2 (human)
  kinase still bound, per cent of control: 66%
CLK2 (human)
  kinase still bound, per cent of control: 71%
DAPK3 (human)
  kinase still bound, per cent of control: 99%
MTOR (human)
  kinase still bound, per cent of control: 100%
[3]
  kinase still bound, per cent of control: 18%
EPHB2 (human)
  kinase still bound, per cent of control: 0%
PRKCI (human)
  kinase still bound, per cent of control: 100%
RIOK1 (human)
  kinase still bound, per cent of control: 0.75%
MAPK10 (human)
  kinase still bound, per cent of control: 15%
PIP5K1A (human)
  kinase still bound, per cent of control: 2.6%
CAMK1D (human)
  kinase still bound, per cent of control: 100%
MAP2K5 (human)
  kinase still bound, per cent of control: 0.2%
PHKG1 (human)
  kinase still bound, per cent of control: 100%
[4]
  kinase still bound, per cent of control: 12%
CDK4 CCND3 (human)
  kinase still bound, per cent of control: 73%
CAMK2A (human)
  kinase still bound, per cent of control: 100%
IGF1R (human)
  kinase still bound, per cent of control: 100%
